The subject of the test is str. radiatum CA1 region of rat hippocampal slices (LTP). Briefly: LTP test (40 Hz theta burst tetanization) in submerged hippocampal slices, field EPSP recording in multi-chamber device. The test is classed as cell-based. Particulars: 40 Hz×4×10 theta burst, p<0.01, 4 rats, 12 slices. As to the method: A twelve-chamber assembly of chambers according to the embodiment of the invention described in Example 1 is prepared for measurement of twelve slices simultaneously. Each chamber is prepared such that the top ends of the electrodes are placed 50 μm below the bottom net. Bipolar stimulation is utilized and the distance between electrodes is set to 100 μm. Such an assembly with fixed electrodes may be utilized for numerous experiments without readjustment of the electrodes. Individual chambers in the assembly may be replaced as necessary with new chambers. Electrophysiology experiments are performed on a 6-month old male rat. 400 μm hippocampal slices from the rat are prepared using a VIBROTOMETM (vibroslicer WPI; World Precision Instruments) to assure precise thickness. Slices were incubated for 2 hours at room temperature in a perfusion solution containing, in mM, 119 NaCl, 2.5 KCl, 2.5 CaCl2, 1.3 MgSO4, 1.25 NaH2PO4, 26.0 NaHCO3, 10 glucose and equilibrated with 95% O2 and 5% CO2 (pH 7.3-7.4) at room temperature. […] Simultaneous recording from the twelve slices is measured using electrophysiological software, […] […] 30 seconds after the single tetanus, baseline is continued to be collected as before and LTP was measured 60 minutes after tetanization. […] LOGEC 50 values are determined using Prizm4 software (Graphpad).

Consider `COc1ccc(C2CNC(=O)C2)cc1OC1CCCC1` (centres unmarked) [rolipram], for which the “% of facilitation of the LTP 60 minutes after tetanic stimulation” value is reported as “significant” (rolipram 1 μM in perfusion fluid) and “significant” (rolipram 10 μM in perfusion fluid).

The record behind these values is patent publication US20050131463A1, “Perfusion chamber for recording evoked and spontaneous electrical activity from submerged acute brain slices” (priority 2003, published 2005).
